Experimental findings from ChEMBL document CHEMBL1201862, “PubChem BioAssay data set” (2004) are described below.

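Results reflect a 48-hour exposure of cells in 96-well plates to compound at five concentrations. The concentration for 50% growth inhibition is given as GI50.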 The source made the active and inactive calls. Cut-off read from the data, not from the text of the source: active = GI50 up to about 1.1 µM and inactive = higher. Bounds are passed on as bounds.

Among the test systems are A549; SK-MEL-2; Hs-578T; PC-3; TK-10; HCC 2998; SW-620; LOX IMVI; ACHN; SR; RXF 393; HOP-92; KM12; SF-295; NCI-H23; T47D; OVCAR-8; 786-0; SNB-19; MDA-N.
Test in all cases: NCI anticancer screen, dose series, 48 h

As to `COC1(CC[C@H](C)COC2OC(CO)C(O)C(O)C2O)O[C@H]2C[C@H]3[C@@H]4CC=C5C[C@@H](OC6OC(CO)C(O)C(OC7OC(CO)C(O)C(O)C7O)C6OC6OC(C)C(O)C(O)C6O)CC[C@]5(C)[C@H]4CC[C@]3(C)[C@H]2[C@@H]1C` (stereo not given in full), the GI50 is 2.73 µM (inactive) in the assay with A549; 8.77 µM (inactive) with SK-MEL-2; 11 µM (inactive) in the assay on Hs-578T; 4.3 µM (inactive) with PC-3; 21.2 µM (inactive) with TK-10; 4.86 µM (inactive) with HCC 2998. For the same compound, the GI50 was 2.81 µM (inactive) with SW-620; 2.68 µM (inactive) with LOX IMVI; 13.3 µM (inactive) in the assay on ACHN; > 100 µM (inactive) with SR; 4.24 µM (inactive) in the assay with RXF 393; 3.37 µM (inactive) in the assay on HOP-92. The GI50 with KM12 is 1.98 µM (inactive); in the assay with SF-295 it was 3.3 µM (inactive); in the assay on NCI-H23, 6.52 µM (inactive); in the assay on T47D, 2.61 µM (inactive); in the assay on OVCAR-8 it was 3.03 µM (inactive); in the assay with 786-0, 2.32 µM (inactive). For the same compound, the results for the GI50 in the assay on SNB-19 and in the assay on MDA-N were 7.31 µM (inactive) and 8.81 µM (inactive), respectively.
Consider `O=C(/C=C(O)/C(=C/C(=O)c1ccccc1)NN=C(c1ccccc1)c1ccccc1)c1ccccc1`, for which the GI50 is 36.1 µM (inactive) in the assay with A549; 25.8 µM (inactive) with SK-MEL-2; 29.2 µM (inactive) with Hs-578T; 35.9 µM (inactive) in the assay with PC-3; 28.4 µM (inactive) in the assay on TK-10; 20.6 µM (inactive) in the assay on HCC 2998. Also, the GI50 in the assay on SW-620 is 33.2 µM (inactive); in the assay on LOX IMVI, 38.3 µM (inactive); in the assay with ACHN, 38.3 µM (inactive); in the assay on SR it was 9.08 µM (inactive); with RXF 393 it was 41 µM (inactive); in the assay on HOP-92, 60.4 µM (inactive). Moreover, the GI50 in the assay on KM12 is 42.3 µM (inactive); in the assay with SF-295 it was 23.5 µM (inactive); in the assay on NCI-H23 it was 24 µM (inactive); in the assay on T47D, 32.4 µM (inactive); in the assay on OVCAR-8, 44.7 µM (inactive); with 786-0, 31.1 µM (inactive). In addition, the results for the GI50 with SNB-19 and with MDA-N were 41.3 µM (inactive) and 31.8 µM (inactive), respectively.
For the compound `C=C1CCCCCCCCC/C=C/1SCCCSC`, the GI50 in the assay with A549, in the assay on SK-MEL-2, in the assay on Hs-578T, in the assay on PC-3, in the assay on TK-10 and with HCC 2998 was > 100 µM (inactive) throughout. Also, the GI50 with SW-620, in the assay with LOX IMVI, in the assay with ACHN, with SR, with RXF 393 and with HOP-92 was > 100 µM (inactive) throughout. Also, the GI50 in the assay with KM12, in the assay with SF-295, in the assay on NCI-H23, with T47D, in the assay with OVCAR-8 and with 786-0 was > 100 µM (inactive) in each case. In addition, the GI50 in the assay on SNB-19 and in the assay with MDA-N was > 100 µM (inactive) throughout.
For `CC(=O)N1NC(c2ccccc2)=NC(=O)C1c1cc(C)c(O)c(C)c1` (stereo not given), the GI50 in the assay with A549 is 24.4 µM (inactive); in the assay on SK-MEL-2 it was 28.1 µM (inactive); in the assay on Hs-578T it was 29.8 µM (inactive); in the assay with PC-3, 27.8 µM (inactive); in the assay with TK-10, 20.6 µM (inactive); in the assay with HCC 2998, 20 µM (inactive). Further, the GI50 in the assay on SW-620 was 44.4 µM (inactive); in the assay on LOX IMVI it was 36.3 µM (inactive); with ACHN, 20.7 µM (inactive); with SR it was 49.3 µM (inactive); in the assay on RXF 393 it was 17.5 µM (inactive); in the assay on HOP-92, 19.8 µM (inactive). Further, the GI50 with KM12 was 36 µM (inactive); with SF-295, 19.1 µM (inactive); with NCI-H23, 24 µM (inactive); with T47D, 22.4 µM (inactive); in the assay with OVCAR-8, 17.6 µM (inactive); in the assay on 786-0, 17.3 µM (inactive). The GI50 in the assay on SNB-19 was 21.2 µM (inactive); with MDA-N, 54.6 µM (inactive).
With `COC(=O)/C=C1\C(=O)N(C(C)=O)c2ccccc21`, the GI50 in the assay on A549 was 7.18 µM (inactive); in the assay on SK-MEL-2 it was 16.9 µM (inactive); in the assay with Hs-578T it was 4.17 µM (inactive); in the assay on PC-3, 13.8 µM (inactive); in the assay on TK-10, 7.14 µM (inactive); in the assay on HCC 2998, 15.4 µM (inactive). Further, the GI50 in the assay with SW-620 is 13.7 µM (inactive); in the assay with LOX IMVI it was 3.91 µM (inactive); in the assay on ACHN it was 6.82 µM (inactive); with SR, 2.52 µM (inactive); in the assay with RXF 393, 6.04 µM (inactive); in the assay with HOP-92 it was 2.04 µM (inactive). Further, the GI50 is 12.7 µM (inactive) with KM12; 17 µM (inactive) with SF-295; 14.6 µM (inactive) in the assay with NCI-H23; 8.39 µM (inactive) with T47D; 17.4 µM (inactive) in the assay on OVCAR-8; 4.9 µM (inactive) in the assay on 786-0. Further, the values for the GI50 in the assay with SNB-19 and in the assay with MDA-N were 18 µM (inactive) and 7.85 µM (inactive), respectively.
Turning to `CCN(c1cccc(NC(=S)Nc2ccccc2N(CC)c2cc(-c3ccccc3)no2)c1)c1cc(-c2ccccc2)no1`, the GI50 in the assay on A549, in the assay with SK-MEL-2, in the assay on Hs-578T, with PC-3, with TK-10 and with HCC 2998 was > 100 µM (inactive) throughout. Moreover, the GI50 with SW-620, in the assay with LOX IMVI, in the assay on ACHN, with SR, in the assay on RXF 393 and in the assay on HOP-92 was > 100 µM (inactive) throughout. For the same compound, the GI50 in the assay with KM12, with SF-295, with NCI-H23, with T47D, in the assay with OVCAR-8 and in the assay on 786-0 was > 100 µM (inactive) each time. Moreover, the GI50 in the assay on SNB-19 and in the assay with MDA-N was > 100 µM (inactive) throughout.
For `N=C(N)NC1C(O)C(O)C(O)C(NC(=N)N)C1O` (stereo not given), the GI50 in the assay on A549, with SK-MEL-2, in the assay on Hs-578T, in the assay on PC-3, with TK-10 and in the assay on HCC 2998 was > 100 µM (inactive) in each case. The GI50 with SW-620, with LOX IMVI, in the assay with ACHN, with SR, in the assay on RXF 393 and in the assay with HOP-92 was > 100 µM (inactive) throughout. Also, the GI50 in the assay with KM12, in the assay on SF-295, in the assay with NCI-H23, with T47D, in the assay on OVCAR-8 and in the assay on 786-0 was > 100 µM (inactive) each time. Besides, the GI50 in the assay on SNB-19 and in the assay with MDA-N was > 100 µM (inactive) in each case.
Regarding `O=C(NC(=O)c1ccccc1[N+](=O)[O-])Nc1ccc(Oc2ncc(Cl)cn2)c(C(F)(F)F)c1`, the GI50 is 0.0183 µM (active) in the assay with A549; < 0.01 µM (active) with SK-MEL-2; < 0.01 µM (active) with Hs-578T; < 0.01 µM (active) with PC-3; 20.1 µM (inactive) in the assay with TK-10; 0.0209 µM (active) with HCC 2998. The GI50 is < 0.01 µM (active) with SW-620; 0.0262 µM (active) with LOX IMVI; 0.0789 µM (active) in the assay with ACHN; 0.116 µM (active) in the assay with SR; < 0.01 µM (active) with RXF 393; < 0.01 µM (active) in the assay on HOP-92. The GI50 was < 0.01 µM (active) with KM12; < 0.01 µM (active) with SF-295; 0.0257 µM (active) with NCI-H23; 22.1 µM (inactive) in the assay with T47D; 0.0236 µM (active) in the assay with OVCAR-8; < 0.01 µM (active) in the assay on 786-0. Also, the GI50 with SNB-19 is 0.0218 µM (active); in the assay with MDA-N it was < 0.01 µM (active).
As to `CC(C)C(C=O)C(O)(C(F)(F)F)C(F)(F)F` (stereo not given), the GI50 was > 100 µM (inactive) with A549; > 100 µM (inactive) in the assay with SK-MEL-2; 59.3 µM (inactive) in the assay with Hs-578T; > 100 µM (inactive) in the assay with PC-3; > 100 µM (inactive) in the assay on TK-10; > 100 µM (inactive) in the assay with HCC 2998. In addition, the GI50 with SW-620, in the assay with LOX IMVI, with ACHN, with SR, in the assay with RXF 393 and in the assay with HOP-92 was > 100 µM (inactive) each time. The GI50 in the assay with KM12, in the assay on SF-295, in the assay on NCI-H23, in the assay on T47D, with OVCAR-8 and in the assay on 786-0 was > 100 µM (inactive) in each case. Moreover, the GI50 in the assay with SNB-19 and with MDA-N was > 100 µM (inactive) throughout.
On to `FC(F)(F)C1(C(F)(F)F)O[Si]2(OC(C(F)(F)F)(C(F)(F)F)c3ccccc32)c2ccccc21`, for which the GI50 is 13.5 µM (inactive) in the assay on A549; 7.66 µM (inactive) in the assay on SK-MEL-2; 11.9 µM (inactive) in the assay with Hs-578T; 6.27 µM (inactive) in the assay with PC-3; 17.4 µM (inactive) in the assay on TK-10; 13.7 µM (inactive) with HCC 2998. In addition, the GI50 in the assay on SW-620 was 17.1 µM (inactive); with LOX IMVI, 9.44 µM (inactive); in the assay on ACHN, 12 µM (inactive); with SR, 9.95 µM (inactive); in the assay with RXF 393, 13.6 µM (inactive); in the assay on HOP-92, 3.69 µM (inactive). Further, the GI50 in the assay on KM12 is 17.1 µM (inactive); in the assay on SF-295 it was 5.2 µM (inactive); in the assay on NCI-H23 it was 10.6 µM (inactive); in the assay with T47D it was 9.95 µM (inactive); in the assay on OVCAR-8 it was 8.75 µM (inactive); with 786-0, 12.7 µM (inactive). Besides, the GI50 with SNB-19 is 9.57 µM (inactive); with MDA-N, 13.4 µM (inactive).
